Experimental data reported in article PMC8868297, “Stapling of Peptides Potentiates the Antibiotic Treatment of Acinetobacter baumannii In Vivo” (Antibiotics, 2022).
Bridge positions count the residues as written; N and C are the ends. Square brackets hold non-standard residues; d marks the D form. Ends that are not written are not given here. Peptide text beside a SMILES is read from it. R8 = C=CCCCCCC[C@@](C)(N)C(=O)O; S5 = C=CCCC[C@](C)(N)C(=O)O

Columns and labels:
circular dichroism = details: 5 mM sodium phosphate; pH 7.5; 20 °C; 7.5 uM
A. baumannii 1757 = assay: MIC / checkerboard synergy assay (also with added LPS); assay type: cell-based, Acinetobacter baumannii; details: mean ± SD; for MIC (compound alone): LB broth, MIC = 90% of growth prevented, OD600 over 12 h; for MIC, + Rd-LPS (F583): LB medium with soluble deep rough LPS 15 µg/ml; for MIC, + Sm-LPS (055:B5): LB medium with soluble smooth LPS 15 µg/ml; for MIC, No supplement: LB medium without supplement (Table S4)
Description: (§1) Minimum inhibitory concentrations of the peptides and antibiotics were determined according to the protocol described by Wiegand et al.. Briefly, two-fold dilution series of cationic peptides in 50 µL volume of LB broth containing 2% DMSO were made in polypropylene 96-well microtiter plates (Ratiolab, L6018123, Dreieich, Germany). The optical density at 600 nm (OD600) of growing bacterial cultures was followed, and at mid-log-phase (OD600 ~0.4–0.5) cultures were diluted to OD600 0.02 and 50 µL was added to the wells, resulting in a total volume of 100 µl, an OD600 of ~0.01 and a DMSO concentration of 1%. An OD600 of ~0.01 accounted for approximately 3 × 10^8 colony forming units per mL (CFU/mL) for A. baumannii, 1 × 10^7 CFU/mL for E. coli and 5 × 10^7 CFU/mL for K. pneumoniae as determined by plate counting.
(§2) In a similar manner, two-fold dilution series of antibiotics were made in polystyrene microtiter plates (Costar, REF3779, Corning NY, United States) in 70 µL volume of LB broth. Then, 50 µL of the antibiotic series was transferred to the peptide containing polypropylene plate, resulting in a checkerboard titration of a peptide on the vertical axis and an antibiotic on the horizontal axis. To some checkerboard assays 15 µg/mL isolated smooth (sm) LPS (from E. coli O55:B5, Sigma-Aldrich, L2880), rough (Ra) LPS (from E. coli EH100, Sigma-Aldrich, L9641) or deep rough (Rd) LPS (from E. coli F583, Sigma-Aldrich, L6893) LPS was added to the LB broth. Mid-log phase cultures were diluted to OD600 0.1 and 10 µL culture was added to each well of the microtiter plate, resulting in a total volume of 110 µL and an OD600 of ~0.01 (~3 × 10^8 CFU/mL), and the OD600 was measured every 15 min for 12 h using the microplate reader. First, the MIC values of the antibiotics alone and the MIC values of the peptides alone were determined as described previously. Similarly, the MIC values of the antibiotics in combination with the different peptides and the MIC values of the peptides in combination with the antibiotics were determined (the fractional inhibitory concentrations (FIC)). […] An FICindex between 0.5 and 1 was considered to be an additive effect.

sheep red blood cells = details: sheep RBCs in DMEM, 1 h, 32 °C, OD405; for hemolysis at 50 µM: relative to 1% Triton-X100, negative control polymyxin B nonapeptide
Description: Defibrinated sheep blood was purchased from BioTrading (LOT 21118SG66, Mijdrecht, The Netherlands) and kept at 4 °C. As previously described by Phan et al., red blood cells (RBCs) were pelleted by centrifugation at 600× g for 7 min at 4 °C and gently resuspended in phenol red-free Dulbecco’s Modified Eagle Medium (DMEM, Gibco 21063-029, ThermoFisher Scientific, Waltham MA, United States). This was repeated five times until the supernatant appeared colorless. In the meantime, 10-fold dilution series of the peptides at 50 μM, 5 μM and 0.5 μM in 50 µl DMEM, 1% DMSO were made in polypropylene microtiter plates (Ratiolab, L6018123, Dreieich, Germany). Triton-X100 (1%, Sigma-Aldrich T-8787) and DMSO (10%, Sigma-Aldrich D-8418) were used as positive and negative controls, respectively. Polymyxin B (Sigma-Aldrich, p-1411) and polymyxin B nonapeptide (Sigma-Aldrich, p-2076) were used as reference lytic and non-lytic peptides. Then, 50 µL of RBCs was added to each well. The plate was sealed and incubated at 5% CO2 for one hour at 32 °C, after which the plate was centrifuged at 610× g for 5 min at room temperature. Next, 70 µL supernatant was removed and transferred to a flat-bottomed polystyrene microtiter plate (Costar, REF3779) and the OD405, as a measure of released hemoglobin, was determined using a microplate reader (Synergy H1 Multi-Mode Reader or Synergy HTX Multi-Mode Reader, BioTek). Percentage of hemolysis was calculated using the following equation: (2) % hemolysis=(absorbance test sample)-(absorbance diluent)/(absorbance positive control)-(absorbance diluent)

zebrafish larvae = assay: Toxicity in zebrafish larvae (survival after caudal vein injection); details: survival of uninfected larvae vs vehicle (50% DMSO), five days
Description: Transparent Casper zebrafish (Danio rerio) larvae were infected and treated according to protocols described by Van der Sar et al. and Bernard et al. [43, 44]. In short, zebrafish larvae collected from a laboratory-breeding colony kept at 24 °C and a 12:12 h dark/light regime. Larvae were selected based on morphology according to hours post fertilization (hpf) and kept at 28 °C. All protocols followed the international guidelines on the protection of animals used for scientific purposes specified by the EU Directive 2010/63/EU, which allows zebrafish larvae to be used up to the moment of free-living (5–7 dpf). Larvae were dechorionated at 28 hpf and anaesthetized in 0.2% tricaine methanesulfonate (MS222, Fluka A-5040). Larvae were individually infected with 1 nL, containing approximately 100–150 CFU (1–1.5 CFU/mL), of Gram-negative bacteria via microinjection of the caudal vein as described previously [33]. One hour post infection, larvae were treated with cationic (stapled) peptides, antibiotics or a combination of the two via another microinjection of 1 nL in the caudal vein. To correct dilution of the treatment upon injection in the vein (1 nL in 250 nL zebrafish larvae volume), treatments were diluted in 0.1% phenol red (Sigma-Aldrich, p-0290) in phosphate buffered saline (PBS) to 250 times the concentration as tested in vitro. Zebrafish larvae were kept at 30 °C throughout the experiment and survival of the larvae, based on heartbeat, was determined every 24 h for 5 days.

A. baumannii 1681 = assay: MIC / checkerboard synergy assay; assay type: cell-based, Acinetobacter baumannii; details: compound alone; LB broth, MIC = 90% of growth prevented, OD600 over 12 h; mean ± SD
Description: as §1, §2

A. baumannii 2196 = assay: MIC / checkerboard synergy assay; assay type: cell-based, Acinetobacter baumannii; details: compound alone; LB broth, MIC = 90% of growth prevented, OD600 over 12 h; mean ± SD
Description: as §1, §2

K. pneumoniae 613 = assay: MIC / checkerboard synergy assay; assay type: cell-based, Klebsiella pneumoniae; details: compound alone; LB broth, MIC = 90% of growth prevented, OD600 over 12 h; mean ± SD
Description: as §1, §2

K. pneumoniae 821 = assay: MIC / checkerboard synergy assay; assay type: cell-based, Klebsiella pneumoniae; details: compound alone; LB broth, MIC = 90% of growth prevented, OD600 over 12 h; mean ± SD
Description: as §1, §2

K. pneumoniae 94 = assay: MIC / checkerboard synergy assay; assay type: cell-based, Klebsiella pneumoniae; details: compound alone; LB broth, MIC = 90% of growth prevented, OD600 over 12 h; mean ± SD
Description: as §1, §2

[1] = normal pooled human serum, 100 µM peptide from 10 mM DMSO stock, 37 °C, samples at 0, 15, 60 min, TCA precipitation, LC-MS TIC vs carbamazepine internal standard, triplicate; Figure 2C
Description: The stability measurements were performed in normal pooled human serum (PHS). The respective peptide was diluted to a final concentration of 100 μM in the aforementioned human serum (from 10 mM peptide stocks in DMSO). Then, 100 μM Carbamazepine was used as an internal standard; 60 μL of aforementioned peptide/Carbamazepine solution in PHS was incubated for 1h at 37 °C/750 rpm and 20 μL samples were taken after 0 min, 15 min and 60 min. Next, 1.5 μL of TCA was added to the sample to precipitate serum proteins. The samples were subsequently incubated on ice for 10 min and then centrifuged (12,000× g, 10 min). Then, 5 μL of supernatant was diluted in 20 μL of H2O/MeCN + 0.1% TFA. The sample was subsequently analyzed by LCMS on an Nucleodur C4-column (Macherey Nagel CC125/4 Nucleodur C4 Gravity, 5 µm) using a linear aqueous MeCN gradient containing FA (0.1%, v/v) and TFA (0.01%, v/v) as ion pair reagent (5–95%, 8 min). Peptides were quantified using the total ion count (TIC) of selected molecular ions. Remaining peptide quantities were calculated by normalizing the peptide peak areas using the internal standard peak areas and subsequently comparing the obtained value with the 0 min measurement. All measurements were performed in triplicate.

## CC(C)C[C@H](NC(=O)[C@H](Cc1c[nH]c2ccccc12)NC(=O)[C@H](CCCCN)NC(=O)[C@H](CCCCN)NC(=O)[C@]1(C)CCCC=CCCC[C@](C)(NC(=O)[C@H](CCCNC(=N)N)NC(=O)[C@@H](N)CCCCN)C(=O)N[C@@H](C(C)C)C(=O)N[C@@H](CCC(N)=O)C(=O)N[C@@H](CCCNC(=N)N)C(=O)N1)C(=O)N[C@@H](CCCNC(=N)N)C(N)=O [Peptide L8S1] (H-KR[S5]VQR[S5]KKWLR-NH2; staple 3-7)
Circular dichroism
  helicity: 49%
A. baumannii 1757
  MIC (compound alone): 12.76 ± 8.91 µM
Sheep red blood cells
  hemolysis at 50 µM: did not cause hemolysis
Zebrafish larvae
  Log2FoldChange compared to vehicle injected: -0.45

## RRLFRRILRWL-NH2 [Peptide L6]
Circular dichroism
  helicity: 15%
A. baumannii 1681
  MIC (compound alone): 0,66±0,13 µM
A. baumannii 2196
  MIC (compound alone): 0,91±0,59 µM
A. baumannii 1757
  MIC, + Rd-LPS (F583): 0.34 ± 0.40 µM
  MIC, + Sm-LPS (055:B5): 9.85 ± 16.34 µM
  MIC, No supplement: 1.2 ± 0.43 µM
  MIC (compound alone): 1.1 ± 1.20 µM
A. baumannii 1757; LB medium with soluble rough LPS 15 µg/ml
  MIC, + Ra-LPS (EH100): 2.50 ± 3.83 µM
K. pneumoniae 613
  MIC (compound alone): 0,65±0,15 µM
K. pneumoniae 821
  MIC (compound alone): 2,44±2,17 µM
K. pneumoniae 94
  MIC (compound alone): 0,63±0,29 µM
Sheep red blood cells
  hemolysis at 50 µM: up to 50%
Zebrafish larvae
  Log2FoldChange compared to vehicle injected: -0.04

## CC[C@H](C)[C@@H]1NC(=O)[C@H](CCCNC(=N)N)NC(=O)[C@H](CCCNC(=N)N)NC(=O)[C@](C)(NC(=O)[C@H](CC(C)C)NC(=O)[C@H](CCCNC(=N)N)NC(=O)[C@@H](N)CCCNC(=N)N)CCCCCCC=CCCC[C@@](C)(C(N)=O)NC(=O)[C@H](Cc2c[nH]c3ccccc23)NC(=O)[C@H](CCCNC(=N)N)NC(=O)[C@H](CC(C)C)NC1=O [Peptide L6S3] (H-RRL[R8]RRILRW[S5]-NH2; staple 4-11)
Circular dichroism
  helicity: 23%
A. baumannii 1757
  MIC (compound alone): 1.47 ± 0.48 µM
Sheep red blood cells
  hemolysis at 50 µM: did not cause hemolysis
Zebrafish larvae
  Log2FoldChange compared to vehicle injected: -0.40

## CC[C@H](C)[C@H](NC(=O)[C@H](CCCNC(=N)N)NC(=O)[C@@H](N)CCCCN)C(=O)N[C@H](C(=O)N[C@@H](CCC(N)=O)C(=O)N[C@@H](CCCNC(=N)N)C(=O)N[C@@]1(C)CCCC=CCCC[C@@](C)(C(=O)N[C@@H](CCCNC(=N)N)C(N)=O)NC(=O)[C@H](Cc2c[nH]c3ccccc23)NC(=O)[C@H](CCCCN)NC(=O)[C@H](CCCCN)NC1=O)C(C)C [Peptide L8S2] (H-KRIVQR[S5]KKW[S5]R-NH2; staple 7-11)
Circular dichroism
  helicity: 25%
A. baumannii 1757
  MIC (compound alone): 8.69 ± 4.29 µM
Sheep red blood cells
  hemolysis at 50 µM: did not cause hemolysis
Zebrafish larvae
  Log2FoldChange compared to vehicle injected: 0.11

## CC(C)C[C@H](NC(=O)[C@H](CCCNC(=N)N)NC(=O)[C@@H](N)CCCNC(=N)N)C(=O)N[C@@H](Cc1ccccc1)C(=O)N[C@@H](CCCNC(=N)N)C(=O)N[C@@H](CCCNC(=N)N)C(=O)N[C@@]1(C)CCCC=CCCC[C@@](C)(C(N)=O)NC(=O)[C@H](Cc2c[nH]c3ccccc23)NC(=O)[C@H](CCCNC(=N)N)NC(=O)[C@H](CC(C)C)NC1=O [Peptide L6S2] (H-RRLFRR[S5]LRW[S5]-NH2; staple 7-11)
Circular dichroism
  helicity: 19%
A. baumannii 1757
  MIC (compound alone): 0.93 ± 0.69 µM
[1]
  stability in human serum (in words): highest stabilities
Sheep red blood cells
  hemolysis at 50 µM: significantly more hemolytic to the RBCs than the negative control
Zebrafish larvae
  Log2FoldChange compared to vehicle injected: -1.21

## CC(C)C[C@H](NC(=O)[C@H](Cc1c[nH]c2ccccc12)NC(=O)[C@H](CCCNC(=N)N)NC(=O)[C@H](CC(C)C)NC(=O)[C@]1(C)CCCC=CCCC[C@](C)(NC(=O)[C@H](CCCNC(=N)N)NC(=O)[C@@H](N)CCCNC(=N)N)C(=O)N[C@@H](Cc2ccccc2)C(=O)N[C@@H](CCCNC(=N)N)C(=O)N[C@@H](CCCNC(=N)N)C(=O)N1)C(N)=O [Peptide L6S1] (H-RR[S5]FRR[S5]LRWL-NH2; staple 3-7)
Circular dichroism
  helicity: 28%
A. baumannii 1757
  MIC (compound alone): 1.80 ± 2.68 µM
Sheep red blood cells
  hemolysis at 50 µM: significantly more hemolytic to the RBCs than the negative control
Zebrafish larvae
  Log2FoldChange compared to vehicle injected: 0.04

## CC[C@H](C)[C@@H]1NC(=O)[C@H](CCCNC(=N)N)NC(=O)[C@H](CCC(N)=O)NC(=O)[C@](C)(NC(=O)[C@@H](NC(=O)[C@H](CCCNC(=N)N)NC(=O)[C@@H](N)CCCCN)[C@@H](C)CC)CCCCCCC=CCCC[C@@](C)(C(=O)N[C@@H](CCCNC(=N)N)C(N)=O)NC(=O)[C@H](Cc2c[nH]c3ccccc23)NC(=O)[C@H](CCCCN)NC(=O)[C@H](CCCCN)NC1=O [Peptide L8S3] (H-KRI[R8]QRIKKW[S5]R-NH2; staple 4-11)
Circular dichroism
  helicity: 25%
A. baumannii 1757
  MIC (compound alone): 0.57 ± 0.23 µM
[1]
  stability in human serum (in words): highest stabilities
Sheep red blood cells
  hemolysis at 50 µM: significantly more hemolytic to the RBCs than the negative control
Zebrafish larvae
  Log2FoldChange compared to vehicle injected: -0.08

## KRIVQRIKKWLR-NH2 [Peptide L8]
Circular dichroism
  helicity: 16%
A. baumannii 1681
  MIC (compound alone): 5,85±0,47 µM
A. baumannii 2196
  MIC (compound alone): 8,54±5,31 µM
A. baumannii 1757
  MIC, + Rd-LPS (F583): 10.83 ± 8.12 µM
  MIC, + Sm-LPS (055:B5): 0.53 ± 0.59 µM
  MIC, No supplement: 8.78 ± 11.15 µM
  MIC (compound alone): 2.53 ± 1.02 µM
K. pneumoniae 613
  MIC (compound alone): 23,74±29,65 µM
K. pneumoniae 821
  MIC (compound alone): 43,37±28,38 µM
K. pneumoniae 94
  MIC (compound alone): 165,45±1,91 µM
Sheep red blood cells; 0.5, 5 and 50 µM
  hemolysis in the concentration range tested (in words): did not cause hemolysis
Zebrafish larvae
  Log2FoldChange compared to vehicle injected: -0.63
